Assay results reported in US4005103A, “Pyrrolidine derivatives” (priority 1973, dated 1977).
Structures can show the parent of a compound that is named as a salt. Where two headings read alike, the source gives them in different places.

Experiments:
[1] = Toxicity, isolated mice (death rate); conditions: mouse, in vivo, 4 hours after treatment, read-out: percentage death rate
Protocol: (§1) Batches of 10 mice are placed in boxes covered with grids (20 × 10 × 10 cm), either isolated individually, or in groups of 10. The test compound is administered orally to them. The death rate is noted 4 hours after the treatment.
(§2) Tables IV and V below give the percentage death rate for the products of Examples XXIV and XXVII compared with d-amphetamine sulphate.

[2] = Toxicity, mice in groups (death rate); conditions: mouse, in vivo, 4 hours after treatment, read-out: percentage death rate
Protocol: as §1, §2

[3] = Cardiovascular activity in anaesthetised dogs; assay type: in vivo; conditions: for pulmonary and systemic hypertension: amphetamine injected intravenously
Text: 5. CARDIOVASCULAR ACTIVITY

[4] = Potentiation of amphetamine: stereotypies in rats after d-amphetamine sulphate; assay type: in vivo; conditions: 30 min before 5 mg/kg d-amphetamine sulphate i.p., over 3 hours, maximum 24
Protocol: 1. POTENTIATION OF AMPHETAMINE
The test compound is administered intraperitoneally to rats 30 minutes before the intraperitoneal injection of 5 mg/kg of d-amphetamine sulphate. The intensity of the stereotypies over a period of 3 hours is assessed by attributing a number from 0 to 4. Table I indicates the sum of the assessments as a function of the doses administered. The maximum assessment is 24.

[5] = Anorexigenic activity in dogs; assay type: in vivo, Beagle dogs; conditions: Canis lupus familiaris, read-out: percentage inhibition of consuming food
Protocol: 2. ANOREXIGENIC ACTIVITY IN DOGS
Beagle dogs are conditioned to take their food over the course of 5 minutes once per day. The test compound is administered orally in the form of a single dose of 10 mg/kg one hour before the food is presented. The amount of food ingested is measured at regular intervals.
Table II gives the percentage inhibition of consuming food as a function of the time after treatment.

[6] = Anorexigenic activity in rats; assay type: in vivo, Sprague Dawley male rats; conditions: for ED50: Rattus norvegicus, oral, Litchfield and Wilcoxon method, read-out: ED50 (50% inhibiting dose in relation to the consumption of food)
Protocol: 3. ANOREXIGENIC ACTIVITY IN RATS
Two batches of three Sprague Dawley male rats (130 - 180 g) are conditioned to take their daily food over the course of 7 hours. Water is given as desired. The test compound is administered orally 30 minutes before the food is presented. The amount ingested is measured 1 hour and 2 hours later. The 50% inhibiting dose in relation to the consumption of food (ED50) and the confidence range are calculated according to the Litchfield and Wilcoxon method.
Table III gives the percentage inhibition in relation to the consumption of food as a function of the doses administered.

[7] = Clinical activity (food intake in man); assay type: in vivo; conditions: daily dose of 50 mg
Protocol: The compounds are preferably presented in a form suitable for oral administration, for example in the form of gelatin-coated pills containing 25 mg of the active ingredient.

[8] = Beagle dogs, 10 mg/kg oral, 1 hr after treatment
[9] = Beagle dogs, 10 mg/kg oral, 2 hrs after treatment

Structure (SMILES) | mortality at 4 h ([1]; 16 mg/kg oral) | mortality at 4 h ([1]; 32 mg/kg oral) | mortality at 4 h ([1]; 64 mg/kg oral) | mortality at 4 h ([2]; 16 mg/kg oral) | mortality at 4 h ([2]; 32 mg/kg oral) | pulmonary and systemic hypertension [3] | sum of the assessments of intensity of stereotypies ([4]; 1 mg/kg intraperitoneal) | sum of the assessments of intensity of stereotypies ([4]; 4 mg/kg intraperitoneal) | sum of the assessments of intensity of stereotypies ([4]; 16 mg/kg intraperitoneal) | inhibition in vivo at 10 mg/kg ([5]; po, 1 h) | inhibition in vivo at 10 mg/kg ([5]; po, 2 h) | inhibition in vivo at 10 mg/kg ([5]; po, 4 h) | inhibition in vivo at 10 mg/kg ([5]; po, 24 h) | sum of the assessments of intensity of stereotypies ([4]; 2 mg/kg intraperitoneal) | sum of the assessments of intensity of stereotypies ([4]; 8 mg/kg intraperitoneal) | sum of the assessments of intensity of stereotypies ([4]; 32 mg/kg intraperitoneal) | inhibition in vivo at 10 mg/kg [5, 8] | inhibition in vivo at 10 mg/kg [5, 9] | further results
CC(N)Cc1ccccc1 (stereo not drawn) [Amphetamine, d-amphetamine sulphate, reference compound] | 0% | 0% | 10% | 100% | 100% | causes pulmonary and systemic hypertension |  |  |  |  |  |  |  |  |  |  |  |  | mortality at 4 h ([1]; 128 mg/kg oral): 100%; mortality at 4 h ([2]; 4 mg/kg oral): 0%; mortality at 4 h ([2]; 8 mg/kg oral): 20%
CC1NC(C2CC2)CC1c1ccc(Cl)cc1.Cl (stereo not drawn) [XXIV, 2-cyclopropyl-4-(p-chlorophenyl)-5-methylpyrrolidine hydrochloride] | 0% | 0% | 0% | 0% | 0% | do not cause these phenomena | 7 | 22 | 24 | 100% | 100% | 100% | 80% |  |  |  |  |  | inhibition in vivo at 10 mg/kg ([5]; po, 48 h): 50%; percentage inhibition in relation to the consumption of food ([6]; 1 mg/kg oral, 1 hr): 6%; percentage inhibition in relation to the consumption of food ([6]; 1 mg/kg oral, 2 hrs): 5%; percentage inhibition in relation to the consumption of food ([6]; 2 mg/kg oral, 1 hr): 44%; percentage inhibition in relation to the consumption of food ([6]; 2 mg/kg oral, 2 hrs): 53%; percentage inhibition in relation to the consumption of food ([6]; 4 mg/kg oral, 1 hr): 47%; percentage inhibition in relation to the consumption of food ([6]; 4 mg/kg oral, 2 hrs): 34%; percentage inhibition in relation to the consumption of food ([6]; 8 mg/kg oral, 1 hr): 77%; percentage inhibition in relation to the consumption of food ([6]; 8 mg/kg oral, 2 hrs): 71%; percentage inhibition in relation to the consumption of food ([6]; 16 mg/kg oral, 1 hr): 77%; percentage inhibition in relation to the consumption of food ([6]; 16 mg/kg oral, 2 hrs): 80%; ED50 ([6]; 1 hr): 3.5 mg/kg; ED50 ([6]; 2 hrs): 5.6 mg/kg; mortality at 4 h ([1]; 128 mg/kg oral): 27%; mortality at 4 h ([2]; 64 mg/kg oral): 0%; mortality at 4 h ([2]; 128 mg/kg oral): 0%; systemic hypotension [3]: cause systemic hypotension; amount of food ingested daily [7]: a decrease in the amount of food ingested daily
CC1NC(C2CC2)CC1c1ccc(Cl)c(Cl)c1.Cl (stereo not drawn) [XXVII, 2-cyclopropyl-4-(3',4'-dichlorophenyl)-5-methylpyrrolidine hydrochloride] | 0% | 20% | 70% | 0% | 0% | do not cause these phenomena | 21 | 23 | 24 | 100% | 100% | 100% | 100% |  |  |  |  |  | inhibition in vivo at 10 mg/kg ([5]; po, 48 h): 100%; percentage inhibition in relation to the consumption of food ([6]; 0.5 mg/kg oral, 1 hr): 25%; percentage inhibition in relation to the consumption of food ([6]; 0.5 mg/kg oral, 2 hrs): 30%; percentage inhibition in relation to the consumption of food ([6]; 1 mg/kg oral, 1 hr): 39%; percentage inhibition in relation to the consumption of food ([6]; 1 mg/kg oral, 2 hrs): 36%; percentage inhibition in relation to the consumption of food ([6]; 2 mg/kg oral, 1 hr): 28%; percentage inhibition in relation to the consumption of food ([6]; 2 mg/kg oral, 2 hrs): 37%; percentage inhibition in relation to the consumption of food ([6]; 4 mg/kg oral, 1 hr): 58%; percentage inhibition in relation to the consumption of food ([6]; 4 mg/kg oral, 2 hrs): 55%; percentage inhibition in relation to the consumption of food ([6]; 8 mg/kg oral, 1 hr): 84%; percentage inhibition in relation to the consumption of food ([6]; 8 mg/kg oral, 2 hrs): 83%; percentage inhibition in relation to the consumption of food ([6]; 16 mg/kg oral, 1 hr): 100%; percentage inhibition in relation to the consumption of food ([6]; 16 mg/kg oral, 2 hrs): 100%; ED50 ([6]; 1 hr): 2.3 mg/kg; ED50 ([6]; 2 hrs): 2.2 mg/kg; mortality at 4 h ([2]; 64 mg/kg oral): 0%; mortality at 4 h ([2]; 128 mg/kg oral): 70%; systemic hypotension [3]: cause systemic hypotension; amount of food ingested daily [7]: a decrease in the amount of food ingested daily
COc1ccc(C2CC(C3CC3)NC2C)cc1OC.Cl (stereo not drawn) [XXXI, 2-cyclopropyl-4-(3',4'-dimethoxyphenyl)-5-methylpyrrolidine hydrochloride] |  |  |  |  |  |  |  |  |  |  |  |  |  | 10 | 24 | 23 | 0% | 0% | 
CC1(C)NC(C2CC2)CC1c1ccc2c(c1)OCO2 (stereo not drawn) [XXXII, 2-cyclopropyl-4-(3',4'-methylenedioxyphenyl)-5,5-dimethylpyrrolidine hydrochloride] |  |  |  |  |  |  |  |  |  | 100% | 100% | 100% | 0% | 18 | 24 | 23 |  |  | 
Cc1ccc(C2CC(C3CC3)NC2C)cc1.Cl (stereo not drawn) [XXXIII, 2-cyclopropyl-4-(p-methylphenyl)-5-methyl-pyrrolidine hydrochloride] |  |  |  |  |  |  |  |  |  | 0% | 0% |  |  | 12 | 19 | 24 |  |  | 
CC1C(c2ccc(Cl)c(Cl)c2)CC(C2CC2)N1Cc1ccccc1.Cl (stereo not drawn) [XXXIV, N-benzyl-2-cyclopropyl-4-(3',4'-dichlorophenyl)-5-methylpyrrolidine hydrochloride] |  |  |  |  |  |  |  |  |  |  |  |  |  | 20 | 21 | 15 | 100% | 100% | inhibition in vivo at 10 mg/kg ([5]; Beagle dogs, 10 mg/kg oral, 4 hrs after treatment): 100%; inhibition in vivo at 10 mg/kg ([5]; Beagle dogs, 10 mg/kg oral, 24 hrs after treatment): 50%; inhibition in vivo at 10 mg/kg ([5]; Beagle dogs, 10 mg/kg oral, 48 hrs after treatment): 0%
C#CCN1C(C)C(c2ccc(Cl)cc2)CC1C1CC1.Cl (stereo not drawn) [XXXVI, N-propargyl-2-cyclopropyl-4-(p-chlorophenyl)-5-methylpyrrolidine hydrochloride] |  |  |  |  |  |  |  |  |  | 0% | 0% |  |  |  | 24 | 24 |  |  | 
CC1C(c2ccc(Cl)cc2)CC(C2CC2)N1CCO.Cl (stereo not drawn) [XXXVII, N-hydroxyethyl-2-cyclopropyl-4-(p-chlorophenyl)-5-methylpyrrolidine hydrochloride] |  |  |  |  |  |  |  |  | 24 |  |  |  |  | 12 |  | 24 | 0% | 0% | 
CCN1C(C)C(c2cccc(C(F)(F)F)c2)CC1C1CC1 (stereo not drawn) [XXXVIII, N-ethyl-2-cyclopropyl-4-(m-trifluoromethylphenyl)-5-methylpyrrolidine] |  |  |  |  |  |  | 20 | 24 |  | 0% | 0% |  |  |  | 24 |  |  |  | 
